Measured values: patent US20040005636A1, “Method for obtaining the binding affinities of a peptide library to a protein” (priority 2002, published 2004)
Where two headings read alike, the source gives them in different places. Ends that are not written are not given here. Peptide text beside a SMILES is read from it. * marks the point of attachment. Fluorescein(5-NHCOCH2) = O=C(C*)Nc1ccc2c(c1)C(=O)OC21c2ccc(O)cc2Oc2cc(O)ccc21

Tests used:
[1] = molecular target: T1, hERα-LBD (Homo sapiens, UniProt P03372); assay: Fluorescence polarization assay of coregulator peptide binding to ERα-LBD; details: ERα-LBD in the presence of estradiol; read-out: Dissociation constant for ERα, Estradiol
T1 construct: The receptor ERα-LBD or TRβ-LBD, expressed using reported protocols; made in house
T1 sequence (P03372 311-547 limits assumed): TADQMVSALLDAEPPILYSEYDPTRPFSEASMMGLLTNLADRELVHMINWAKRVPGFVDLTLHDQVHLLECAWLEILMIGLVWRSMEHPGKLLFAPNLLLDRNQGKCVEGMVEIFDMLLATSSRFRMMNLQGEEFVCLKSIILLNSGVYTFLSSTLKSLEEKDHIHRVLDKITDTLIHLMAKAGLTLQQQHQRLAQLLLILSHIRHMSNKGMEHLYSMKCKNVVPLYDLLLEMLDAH
Method: (§1) The peptide library synthesized in Example 1 was assayed with ERα or TRβ receptor. Library members were kept at a constant concentration of 10 nM. A ligand was optionally added to the nuclear hormone receptor.
(§2) The receptor ERα-LBD or TRβ-LBD, expressed using reported protocols (for TR see, e.g., Darimont et al., Genes Dev., 12(21):3343-56, (1998); and for ER, see, e.g., Shiau et al., Cell, (1998), 95(7):927-937), was used. The concentration of protein varied between 0.001-20 μM in the following way. In 96 well plates, hTRβ-LBD or hERα-LBD was serially diluted from 40 μM to 0.002 μM in binding buffer (50 mM Sodium Phosphate, 150 mM NaCl, pH 7.2, 1 mM DTT, 1 mM EDTA, 0.01% NP40, 10% glycerol), containing 200 μM ligand (T3, for TRβ, or estradiol, diethylstilbestrol, genistein or tamoxifen for ERα).
(§3) Subsequently 10 μL of diluted protein was added to 10 μL of fluorescent coregulator peptide (20 nM) in 384-well plates yielding final protein concentrations of […] and 10 nM fluorescent peptide concentration. The samples were allowed to equilibriate for 30 minutes. Binding was then measured using fluorescence polarization (excitation λ at 485 nm, emission λ at 530 nm) on an Analyst AD (available from Molecular Devices).
(§4) All experiments were carried out in quadruplicate, with each iteration containing the positive and negative controls, and 10-12 dose points. The data were then fit using Klotz plots to determine IC50 values using nonlinear regression analysis that fits the data to a modification of the model of Heyduk and Lee. (Heyduk et al., Proc. Natl. Acad. Sci., (1990), 1774; Heyduk et al., Nature, (1993), 364, 6437; Heyduk et al., Methods Enzymol., 274, 492. Further analysis was conducted using Hill and Scatchard plots to confirm number and homogeneity of binding sites as discussed hereinbelow.
FIG. 6 illustrates direct binding of SRC2-2 to ERα-LBD in the presence of the ligands estradiol, diethylstilbestrol and genistein. […] Measured dissociation constants for binding of members of the SRC peptide library to ERα, in the presence of 3 different ligands, are illustrated in Table 4 wherein the binding units are μM. Table 5 illustrates a comparison of binding constants (μM) for SRC peptides with the TRβ receptor in the presence of thyroid hormone T3, and the ERα receptor in the presence of estradiol.

[2] = molecular target: T2, hTRβ-LBD (Homo sapiens, UniProt P10828); assay: Fluorescence polarization assay of coregulator peptide binding to TRβ-LBD; details: for Kd: TRβ-LBD with ligand T3, 10 nM fluorescent peptide, mean of 2 independent assays in quadruplicate, AL = assay limits, read-out: Observed Kd (dissociation constants for p160 peptides for TRβ)
T2 construct: The receptor ERα-LBD or TRβ-LBD, expressed using reported protocols; made in house
T2 sequence (P10828 217-461 limits assumed): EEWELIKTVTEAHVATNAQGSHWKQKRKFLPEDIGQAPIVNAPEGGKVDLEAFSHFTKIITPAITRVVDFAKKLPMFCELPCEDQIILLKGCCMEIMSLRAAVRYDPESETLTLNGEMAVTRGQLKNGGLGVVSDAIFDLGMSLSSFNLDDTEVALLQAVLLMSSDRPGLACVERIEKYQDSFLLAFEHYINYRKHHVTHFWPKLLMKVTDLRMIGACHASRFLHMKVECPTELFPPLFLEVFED
Method: as §1, §2, §3
One of the major potential perturbing phenomena in this assay is unexpected quenching or enhancement of fluorescence intensity. To control for this, both overall fluorescence intensity and fluorescence anisotropy for each sample were simultaneously monitored.
as §4
FIGS. 1 to 3 illustrate the results of three different measurements of the binding affinity of selected members of the SRC peptide library to TRβ-LBD. FIG. 4 illustrates a Scatchard plot, which provides the Kd for the SRC2-2 peptide. FIG. 5 illustrates a Hill plot, which provides the Kd for the SRC2-2 peptide. Both the Scatchard and Hill plot correlate with the direct binding plots illustrated in FIGS. 1-3. The Scatchard data were best fit to a linear function, which indicates a single class of binding sites. The slope of the Hill plot is 1, which also indicates a single class of binding sites. Measured dissociation constants for binding of the SRC peptide library to TRβ are illustrated in Table 3. […]

[3] = molecular target: T2, hTRβ-LBD; details: cited from earlier work
[4] = molecular target: T3, hERα-LBD (ligand binding domain of estrogen receptor α) (human, UniProt P03372 297-554); assay: fluorescence polarization, labelled peptide 10 nM, hERα-LBD titrated, diethylstilbestrol present
T3 construct: Assayed with estradiol, diethylstilbestrol, genistein or tamoxifen present; the ligand is named under assay in each row
T3 sequence (looked up): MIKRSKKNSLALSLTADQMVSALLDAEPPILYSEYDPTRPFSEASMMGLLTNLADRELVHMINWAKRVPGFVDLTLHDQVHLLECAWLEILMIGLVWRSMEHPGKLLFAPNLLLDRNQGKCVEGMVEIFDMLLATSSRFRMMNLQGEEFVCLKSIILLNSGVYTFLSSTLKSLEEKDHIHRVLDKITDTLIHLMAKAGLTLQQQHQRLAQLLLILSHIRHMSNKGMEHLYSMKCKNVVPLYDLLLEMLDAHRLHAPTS
Method: (§5) The concentration of protein varied between 0.001-20 μM in the following way. In 96 well plates, hTRβ-LBD or hERα-LBD was serially diluted from 40 μM to 0.002 μM in binding buffer (50 mM Sodium Phosphate, 150 mM NaCl, pH 7.2, 1 mM DTT, 1 mM EDTA, 0.01% NP40, 10% glycerol), containing 200 μM ligand (T₃, for TRβ, or estradiol, diethylstilbestrol, genistein or tamoxifen for ERα).
as §3
as §4, with “IC₅₀” for “IC50”

[5] = molecular target: T3, hERα-LBD (ligand binding domain of …); assay: fluorescence polarization, labelled peptide 10 nM, hERα-LBD titrated, genistein present
Method: as §5, §3
as §4, with “IC₅₀” for “IC50”

[6] = molecular target: T4, hTRβ-LBD (ligand binding domain of thyroid hormone receptor β) (human, UniProt P10828 202-461); assay: fluorescence polarization, hTRβ-LBD titrated, T3 present; Table 3 prints ≧3 µM for this pair
T4 construct: Assayed with the small-molecule ligand T3 present
T4 sequence (looked up): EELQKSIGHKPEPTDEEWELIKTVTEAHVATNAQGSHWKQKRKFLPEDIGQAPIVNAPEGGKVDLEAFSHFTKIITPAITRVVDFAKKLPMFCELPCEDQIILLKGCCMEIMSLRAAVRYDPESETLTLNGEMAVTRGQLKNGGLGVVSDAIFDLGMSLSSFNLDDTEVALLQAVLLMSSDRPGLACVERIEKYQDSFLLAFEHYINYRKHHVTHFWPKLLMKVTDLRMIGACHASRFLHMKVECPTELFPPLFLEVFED
Method: as §5, §3
as §4, with “IC₅₀” for “IC50”

[7] = molecular target: T3, hERα-LBD (ligand binding domain of …); assay: fluorescence polarization, hERα-LBD titrated, estradiol present; repeats Table 4
Method: as §5, §3
as §4, with “IC₅₀” for “IC50”

[8] = molecular target: T3, hERα-LBD (ligand binding domain of …); assay: fluorescence polarization, labelled peptide 10 nM, hERα-LBD titrated, estradiol present
Method: as §5, §3
as §4, with “IC₅₀” for “IC50”

[9] = molecular target: T4, hTRβ-LBD (ligand binding domain of …); assay: fluorescence polarization, hTRβ-LBD titrated, T3 present; repeats Table 3
Method: as §5, §3
as §4, with “IC₅₀” for “IC50”

[10] = molecular target: T4, hTRβ-LBD (ligand binding domain of …); assay: fluorescence polarization, fluorescein-labelled peptide 10 nM, hTRβ-LBD titrated, T3 present
Method: as §5, §3
as §4, with “IC₅₀” for “IC50”

[11] = TRβ, Darimont et al., Genes & Dev. (1998) 12:3343, read-out: Published Results: Kd app

Molecule | Kd [1] | Kd [2] | Kd [3, 11] | Kd [4] | Kd [5] | further results
CC[C@H](C)[C@H](NC(=O)[C@H](CCCCN)NC(=O)[C@H](Cc1c[nH]cn1)NC(=O)[C@H](CCCNC(=N)N)NC(=O)[C@H](C)NC(=O)[C@@H](NC(=O)[C@H](CC(C)C)NC(=O)[C@@H](N)CSCC(=O)Nc1ccc2c(c1)C(=O)OC21c2ccc(O)cc2Oc2cc(O)ccc21)[C@@H](C)O)C(=O)N[C@@H](CC(C)C)C(=O)N[C@@H](Cc1c[nH]cn1)C(=O)N[C@@H](CCCNC(=N)N)C(=O)N[C@@H](CC(C)C)C(=O)N[C@@H](CC(C)C)C(=O)N[C@@H](CCC(N)=O)C(=O)N[C@@H](CCC(=O)O)C(=O)NCC(=O)N[C@@H](CO)C(=O)N1CCC[C@H]1C(=O)N[C@@H](CO)C(=O)N[C@@H](CC(=O)O)C(=O)O [SRC1-2] | 231 nM | 930 nM | – | – | – | –
CC[C@H](C)[C@H](NC(=O)[C@H](CCCCN)NC(=O)[C@H](Cc1c[nH]cn1)NC(=O)[C@H](CCCCN)NC(=O)[C@H](CCC(=O)O)NC(=O)[C@H](CCCCN)NC(=O)[C@H](CC(C)C)NC(=O)[C@@H](N)CSCC(=O)Nc1ccc2c(c1)C(=O)OC21c2ccc(O)cc2Oc2cc(O)ccc21)C(=O)N[C@@H](CC(C)C)C(=O)N[C@@H](Cc1c[nH]cn1)C(=O)N[C@@H](CCCNC(=N)N)C(=O)N[C@@H](CC(C)C)C(=O)N[C@@H](CC(C)C)C(=O)N[C@@H](CCC(N)=O)C(=O)N[C@@H](CC(=O)O)C(=O)N[C@@H](CO)C(=O)N[C@@H](CO)C(=O)N[C@@H](CO)C(=O)N1CCC[C@H]1C(=O)N[C@H](C(=O)O)C(C)C [SRC2-2] | 222 nM | 670 nM | 800 nM | – | – | Kd ([3]; hTRβ-LBD, reported value, read-out: Reported Kd): 1000 nM
CC(C)C[C@H](NC(=O)[C@H](C)NC(=O)[C@H](CC(N)=O)NC(=O)[C@H](CCC(=O)O)NC(=O)[C@H](CCCCN)NC(=O)[C@H](CCCCN)NC(=O)[C@H](CCCCN)NC(=O)[C@@H](N)CSCC(=O)Nc1ccc2c(c1)C(=O)OC21c2ccc(O)cc2Oc2cc(O)ccc21)C(=O)N[C@@H](CC(C)C)C(=O)N[C@@H](CCCNC(=N)N)C(=O)N[C@@H](Cc1ccc(O)cc1)C(=O)N[C@@H](CC(C)C)C(=O)N[C@@H](CC(C)C)C(=O)N[C@@H](CC(=O)O)C(=O)N[C@@H](CCCCN)C(=O)N[C@@H](CC(=O)O)C(=O)N[C@@H](CC(=O)O)C(=O)N[C@H](C(=O)N[C@@H](CCCCN)C(=O)N[C@@H](CC(=O)O)C(=O)O)[C@@H](C)O [SRC2-3] | 1420 nM | ≥ 3000 nM | 3200 nM | – | – | –
CC(C)C[C@H](NC(=O)[C@H](CCCCN)NC(=O)[C@H](CCCCN)NC(=O)[C@H](Cc1c[nH]cn1)NC(=O)CNC(=O)[C@H](CCCCN)NC(=O)[C@H](CO)NC(=O)[C@H](CCC(=O)O)NC(=O)[C@@H](N)CSCC(=O)Nc1ccc2c(c1)C(=O)OC21c2ccc(O)cc2Oc2cc(O)ccc21)C(=O)N[C@@H](CC(C)C)C(=O)N[C@@H](CCC(N)=O)C(=O)N[C@@H](CC(C)C)C(=O)N[C@@H](CC(C)C)C(=O)N[C@H](C(=O)N[C@@H](CS)C(=O)N[C@@H](CO)C(=O)N[C@@H](CO)C(=O)N[C@@H](CC(=O)O)C(=O)N[C@@H](CC(=O)O)C(=O)N[C@@H](CCCNC(=N)N)C(=O)O)[C@@H](C)O [SRC3-1] (H-C(Fluorescein(5-NHCOCH2))ESKGHKKLLQLLTCSSDDR-OH; N-terminus assumed) | – | – | – | – | – | Comparison of affinity for TRβ and ERα ([2]; Tables 3, 4 and 5): approximately the same affinity
C(5‑iodoacetamidofluorescein)KKKENALLRYLLDKDDTKD [SRC2-3 coregulator peptide] | – | – | – | 786 nM | 2000 nM | Kd [6]: 3000 nM
C(5‑iodoacetamidofluorescein)ESKGHKKLLQLLTCSSDDR (The peptide has a second, internal Cys) [SRC3-1 coregulator peptide] | – | – | – | 1000 nM | 250 nM | Kd [7]: 160 nM; Kd [8]: 160 nM; Kd [9]: 870 nM; Kd [10]: 870 nM
